Measurements: patent US20140011769A1, “Methods of Treating Retroviral Infections and Related Dosage Regimes” (Chimerix, Inc., priority 2012, published 2014)

System: HTLV-I proviral DNA
Assay: PCR of proviral HTLV-I DNA in co-cultured PBMCs
Format: cell-based
Details: for relative intensity of amplified HTLV-I versus infected controls (PBMC+MT-2 cells): two and four weeks, all concentrations; for concentration giving less integration of proviral DNA by PCR: weeks 2 and 4
Method: Co-Culture for HTLV-I Replication: Cell cultures were incubated at 37° C./5% CO2 for four weeks. Cell viability and density was monitored by trypan blue dye exclusion test. Cell density was readjusted to 8×10^5 cells per mL on days 3, 7, 10, 14, 21 and 28. Compound was added with the half-volume fresh medium exchange on days 3, 7, and 10. Supernatant was collected on days 14, 21 and 28 for measurement of HTLV-I virus replication by p19 Gag ELISA. Cell samples were also collected on days 14 and 28 for genomic DNA extraction and PCR analysis of HTLV-I proviral DNA. Untreated PBMCs co-cultured with MT-2 cells, PBMCs alone, and mitomycin C-treated MT-2 cells alone were cultured in parallel as controls.
(§1) PCR of Proviral HTLV-I DNA: The presence of HTLV-I proviral DNA at 2 and 4 weeks in treated and untreated PBMC cells was examined using a PCR assay. Total DNA was extracted from frozen cell pellets using Qiagen DNEasy Blood and Tissue kits according to the manufacturer's recommended method for extraction from cultured cells. DNA was eluted in 200 μl of Buffer AE and the concentration was determined by absorbance at 260 nm in a Spectramax 386 Plus plate reader. Fifty nanograms of extracted DNA was subjected to two separate PCR amplifications using primer sets for HTLV-I and human GAPDH. Amplifications were performed using PCR primer sets designed at ImQuest BioSciences and synthesized by IDT (Coraville, Id.). Amplification of HTLV-I proviral DNA was performed using 50 ng of extracted DNA in a 25 μl reaction volume with TaqPro complete (Denville Scientific, Metuchen, N.J.) and DNA oligonucleotide primers (0.2 μM each) HTLV-3281-F (5′-AACTTCAAGCCCTACTTGGCGAGA-3′[SED ID NO.: 1]) and HTLV-3666-R (5′-TGTATGGTTTGGCAGAGTAGCCCA-3′ [SED ID NO.: 2]). Amplification of human GAPDH DNA sequences was performed using 50 ng of extracted DNA in a 25 μl reaction volume with TaqPro complete and DNA oligonucleotide primers (0.2 μM each) hGAPDH-gF1 (5′-GAAGGAAATGAATGGGCAGCCGTT-3′ [SED ID NO.: 3]) and GAPDH-gR1 (5′-ATTTGCCAAGTTGCCTGTCCTTCC-3′ [SED ID NO.: 4]). Amplification conditions for both HTLV-I and GAPDH consisted of an initial denaturation step of 95° C. for 5 min followed by 40 cycles of 95° C. for 30 sec, 62° C. for 30 sec, 72° C. for 45 sec and a final extension of 72° C. for 5 min. The amplified DNA products were evaluated by agarose gel electrophoresis and ethidium bromide staining.
as §1, with “AGA-3′ [SED” for “AGA-3′[SED”, “5])” for “1])”, “6]).” for “2]).”, “7])” for “3])”, “8]). […]” for “4]). Amplification conditions for both HTLV-I and GAPDH consisted of an initial denaturation step of 95° C. for 5 min followed by 40 cycles of 95° C. for 30 sec, 62° C. for 30 sec, 72° C. for 45 sec and a final extension of 72° C. for 5 min. The amplified DNA products were evaluated by agarose gel electrophoresis and ethidium bromide staining.”

C[C@H](Cn1cnc2c(N)ncnc21)OCP(=O)(O)O [Tenofovir, (R)-9-(2-phosphonylmethoxypropyl)adenine]
relative intensity of amplified HTLV-I versus infected controls (PBMC+MT-2 cells): either equal or less than
concentration giving less integration of proviral DNA by PCR: 25 µM

CCCCCCCCCCCCCCCCOCCCOP(=O)(O)CO[C@H](CO)Cn1ccc(N)nc1=O [HDP-CDV, hexadecyloxypropyl cidofovir]
concentration inhibiting accumulation of HTLV proviral DNA (four weeks of treatment): all concentrations
concentration inhibiting accumulation of HTLV proviral DNA (two weeks of treatment): ≥ 0.2 µM

Nc1ccn(C[C@@H](CO)OCP(=O)(O)O)c(=O)n1 [Cidofovir, (S)-9-(3-hydroxy-2-phosphonylmethoxypropyl)cytosine]
concentration inhibiting accumulation of HTLV proviral DNA (two weeks of treatment): 100 µM

CCCCCCCCCCCCCCCCOCCCOP(=O)(O)CO[C@H](C)Cn1cnc2c(N)ncnc21 [HDP-TFV, 3-(hexadecyloxy)propyl hydrogen ((R)-1-(6-amino-9H-purin 9-yl)propan-2-yloxy)methylphosphonate]
inhibition of HTLV proviral DNA accumulation (four weeks of treatment, lower concentrations): apparent

Cc1cn([C@H]2C[C@H](N=[N+]=[N-])[C@@H](CO)O2)c(=O)[nH]c1=O [AZT, 3′-azido-2′,3′-dideoxythymidine]
relative intensity of amplified HTLV-I versus infected controls (PBMC+MT-2 cells): either equal or less than
concentration giving less integration of proviral DNA by PCR: above 0.1 μM
